# Positions of bridges follow the written chain, without caps; N, C: chain ends. Non-standard residues stand in square brackets, D forms with d. Residues, ends and D or L forms follow the SMILES beside them. dLys(iPr) = CC(C)NCCCC[C@@H](N)C(=O)O; Lys(iPr) = CC(C)NCCCC[C@H](N)C(=O)O; Orn(iPr) = CC(C)NCCC[C@H](N)C(=O)O; Ac3c = NC1(C(=O)O)CC1
# Legend:
# [1] = Plasma stability, mouse plasma; type: in vitro ADME; settings: for mouse pl. T1/2: 37° C.; for remaining at 24 h, 10 μM: 1440 min, read-out: mouse pl. cpd left at 1440 min
# Procedure: The stability of the peptides in human and mouse plasma was determined by applying the following method: 346.5 μL/deep well of freshly thawed human plasma (Basler Blutspende-dienst) and mouse plasma (Harlan Sera-Lab, UK), respectively, were spiked with 3.5 μL/well of compound dissolved in DMSO/H2O (90/10 [v/v], 1 mM, triplicate) and incubated at 37° C. At t=0, 15, 30, 60, 120, 240 and 1440 min aliquots of 50 μL were transferred to filtration plate wells containing 150 μL/well of 2% formic acid in acetonitrile. Following shaking for 2 min the occurred suspensions were filtrated by vacuum. 100 μL of each filtrate were transferred to a propylene microtiter plate and dried under N2. The residual solids were reconstituted by adding 100 μL/well of water/acetonitrile, 95/5 (v/v)+0.2% formic acid and analyzed by LC/MS as follows: Column: Waters, XBridge C18, mobile phases: (A) water+0.1% formic acid and (B) acetonitrile/water, 95/5 (v/v)+0.1% formic acid, gradient: 5%-100% (B) in 1.8 minutes, electrospray ionization, MRM detection (triple quadrupole). The peak areas were determined and triplicate values are averaged. The stability is expressed in percent of the initial value at t=0. (tx/t0×100). By using the TREND function of EXCEL (Microsoft Office 2003) T1/2 were determined.
# [2] = Drug loading calculations via maintenance dose rate; settings: CLiv-mouse scaled by 0.127 (GFR human/mouse)
# Procedure: The drug load for an implant comprising a peptide of the invention was calculated following the basic principles in pharmacokinetics (see also J. Gabrielsson, D. Weiner, “Pharmacokinetics and Pharmaco-dynamics Data Analysis: Concepts and Applications”, 4th edition, Swedish Pharmaceutical Press, Stockholm, Sweden, 2006) whereby the maintenance dose rate (rate of infusion, Rin) can be defined as the rate at which a drug is to be administered to reach a steady state of a certain dose in the plasma. The maintenance dose rate can be expressed using the correlation Rin [g/(h*kg)]=CLiv, [L/(h*kg)]×Css,eff [g/L], wherein CLiv, is the clearance (i.v.—admin.) and Css,eff the effective concentration of the drug in the plasma at steady state considering an efficacy margin A: Css,eff[g/L]=A×(IC50/fu)×MW [(Mol/L)*(g/Mol)]. Therefore, the total amount of a drug loaded into an implant providing for a constant effective concentration of that drug in the plasma for a certain period of time in a subject of a certain body weight can be calculated by applying the following correlation: Drugload [g/subject]=Rin [g/(h*kg)]×duration [h]×BW [kg/subject].
# Further pre-conditions are an efficacy margin of A=3, a study duration of 672 h (28 days) and a body weight of a human subject of 70 kg. […]
Compound,mouse pl. T1/2 [1] [min],"remaining at 24 h, 10 μM [1] [%]","CLiv, human (allometric scaled) [2] [mL/h/kg]"
"CC(C)NCCCC[C@@H]1NC(=O)[C@H](CCC(N)=O)NC(=O)[C@H](Cc2ccc(O)cc2)NC(=O)[C@@H]2CSSC[C@H](NC(=O)[C@H](Cc3ccc(O)cc3)NC(=O)[C@H](Cc3c[nH]cn3)NC(=O)[C@H](Cc3ccc(O)cc3)NC(=O)[C@@H]3CCCN3C(=O)[C@@H](CCCCNC(C)C)NC1=O)C(=O)N[C@@H](CO)C(=O)N[C@@H](C)C(=O)N1CCC[C@@H]1C(=O)N[C@@H](CCCNC(C)C)C(=O)N[C@@H](CCCNC(=N)N)C(=O)N[C@@H](Cc1ccc(O)cc1)C(=O)N2 [Ex. 1, cyclo(-Tyr^1-His^2-Tyr^3-Cys^4-Ser^5-Ala^6-^DPro^7-Orn(iPr)^8-Arg^9-Tyr^10-Cys^11-Tyr^12-Gln^13-Lys(iPr)^14-^DLys(iPr)^15-Pro^16-), disulfide bond between Cys^4 and Cys^11] (cyclo(A[dP][Orn(iPr)]RYCYQ[Lys(iPr)][dLys(iPr)]PYHYCS); disulfide 6-15)",1440,100,125
"CC(C)NCCCC[C@@H]1NC(=O)[C@H](CCC(N)=O)NC(=O)[C@H](Cc2ccc(O)cc2)NC(=O)[C@@H]2CSSC[C@H](NC(=O)[C@H](Cc3ccc(O)cc3)NC(=O)[C@H](Cc3c[nH]cn3)NC(=O)[C@H](Cc3ccc(O)cc3)NC(=O)[C@@H]3CCCN3C(=O)[C@H]3CCCN3C1=O)C(=O)N[C@@H](CO)C(=O)NC1(CC1)C(=O)N1CCC[C@@H]1C(=O)N[C@@H](CCCNC(C)C)C(=O)N[C@@H](CCCNC(=N)N)C(=O)N[C@@H](Cc1ccc(O)cc1)C(=O)N2 [Ex. 2, cyclo(-Tyr^1-His^2-Tyr^3-Cys^4-Ser^5-Acc^6-^DPro^7-Orn(iPr)^8-Arg^9-Tyr^10-Cys^11-Tyr^12-Gln^13-Lys(iPr)^14-^DPro^15-Pro^16-), disulfide bond between Cys^4 and Cys^11] (cyclo(YHYCS[Ac3c][dP][Orn(iPr)]RYCYQ[Lys(iPr)][dP]P); disulfide 4-11)",1440,100,87

# From patent publication US10363284B2, “β-hairpin peptidomimetics” (POLYPHOR AG, priority 2012, dated 2019)
